These results are taken from patent US6677313B1, “Method for gene therapy using nucleic acid loaded polymeric microparticles” (Brown University Research Foundation, priority 1995, dated 2004).

The nature of the data set: in vivo. The settings on record: rat, serum, po, 25 mg/kg.

The structures appear in SMILES notation.

Protocol: Dicumarol containing microspheres were produced as described above in Example 2, subsection 1. Equal doses of dicumarol, spray dried dicumarol and polyanhydride (FA:SA) 20:80 encapsulated dicumarol (25 mg drug/kg body weight) suspended in 1.5 ml maple syrup were fed to catheterized rats (250-350 g). Blood samples were taken at regular intervals and serum was assayed for dicumarol concentrations using a UV spectrophotometric method.

On to `O=c1oc2ccccc2c(O)c1Cc1c(O)c2ccccc2oc1=O` [STOCK DICUMAROL CONTROL, dicumarol], for which the AUC – broadly, the area under the concentration-time curve, a measure of exposure – is 171 ± 33.2 µg·h/mL; the peak level (Cmax) was 11500 ± 1100 ng/mL; the Tmax – broadly, the time from dosing to the highest level – was found to be 9.87 ± 1.76 h; the half-life (in general, the time needed for the level to fall by half in the phase considered) is 18.2 ± 3.3 h.
